Measured values: patent publication US8268330B2 (priority 2007, dated 2012)

Columns and labels:
[1] = tested on: TGFβ1; assay: TGFβ1 production after exposure to iron chelators (ELISA); assay type: cell-based, human; guinea pig; settings: following HIF-1α upregulation and nuclear translocation
Protocol: (§1) Alveolar macrophages were procured from naïve and BCG-vaccinated guinea pigs by lavage of the lungs in situ immediately following euthanasia. The isolated cells were subjected to Percoll gradient centrifugation (BO & Babiuk) to remove contaminating epithelial cells, neutrophils and erythrocytes. The cells were subsequently incubated overnight in chamber slides (Nunc) in RPMI medium with 10% fetal bovine serum (FBS) and antibiotics to allow the cells to adhere. THP-1 and HL60 cells, obtained from the ATCC (Rockville, Md.), were maintained in suspension in RPMI/10% FBS. The various cell types were washed thoroughly in Hank's balanced salt solution (HBSS) before incubation in HBSS without or with mycobactin or desferroxamine at various concentrations and for various length of time (see result section). At the end of the incubation time the spend media were collected and stored at −70° C. for later assay for IL-8 and TNF-α. The cells were then either spotted onto Teflon coated slides for immunolabelling for HIF-1α or HO-1 (see above) or were subjected to differential lysis to procure cytoplasmic and nuclear proteins, respectively. The protein samples were separated on 10% SDS-polyacrylamide gels and blotted onto nitrocellulose membranes. […]
(§2) TNF-α was quantitated using the L929-cytotoxicity assay and TGFβ1 assay was done by ELISA.

[2] = tested on: HIF-1α in THP-1 and HL-60 cells and guinea pig alveolar macrophages; assay: Induction of HIF-1α in myelomonocytic cells and alveolar macrophages exposed to iron chelators in vitro; assay type: cell-based, human; guinea pig; settings: for accumulation of cytoplasmic HIF-1α followed by nuclear translocation in a subset of the cells / concentration for HIF-1α induction effect (molar level): THP-1, HL-60 cells and guinea pig alveolar macrophages
[3] = tested on: TNF-α; assay: TNF-α production after exposure to iron chelators (L929-cytotoxicity assay); assay type: cell-based, human; guinea pig; settings: following HIF-1α upregulation and nuclear translocation
Protocol: as §1, §2

[4] = tested on: IL-8; assay: IL-8 secretion after exposure to iron chelators (ELISA); assay type: cell-based, human; guinea pig; settings: following HIF-1α nuclear translocation; enhanced by PMA differentiation of the human cells
[5] = Iron binding capacity by the ferrozine method; assay type: physicochemical; settings: for iron binding capacity: ferrozine method
Protocol: Iron saturated mycobactin J was purchased from Allied Monitor (Fayette, Mo.). Iron was removed and mycobactin purified by initially reconstituting the lyophilized solution of crude Fe^3+-mycobactin J complex in CHCl3 and 4N HCl. The suspension was stirred for 30 min. The water phase was separated and 4N HCl was added. After being stirred for 30 min, water phase was removed; this process was conducted three times to provide clear color solution. The CHCl3 phase was dried over Na2SO4, and concentrated in vacuo. Purification by SiO2 (CHCl3:MeOH=20:1) gave Fe^3+-free mycobactin J. The preparation was determined to be greater than 94% pure by NMR spectroscopy. Crude preparations of mycobactin J (50 mgs) yielded 9.8 mg following iron removal and purification. The iron binding capacity of iron saturated and Fe^3+-free preparations were determined by the ferrozine method (Eagle Diagnostics, Desoto, Tex.).

Row | Molecule | induction of TGFβ1 production [1] | accumulation of cytoplasmic HIF-1α followed by nuclear translocation in a subset of the cells [2] | concentration for HIF-1α induction effect (molar level) [2] [µM] | induction of TNF-α production [3] | IL-8 secretion [4] | iron binding capacity [5] [µmol/L] | iron binding capacity compared with desferrioxamine ([5]; compared on a molar equivalent) | potency at inducing HIF-1α compared with desferrioxamine ([2]; THP-1 cells in vitro, molar equivalent)
1 | CC(=O)N(O)CCCCCNC(=O)CCC(=O)N(O)CCCCCNC(=O)CCC(=O)N(O)CCCCCN [desferroxamine, reference compound] | minimal | induced accumulation of cytoplasmic HIF-1α in a dose-dependent manner | 10 to 100 | minimal | induction of IL-8 secretion |  |  | 
2 | Fe^3+-free mycobactin J [Fe^3+-free preparation] |  |  |  |  |  | 66.7 |  | 
3 | Fe^3+-mycobactin J complex [Fe^3+-saturated mycobactin] |  |  |  |  |  | 0 |  | 
4 | mycobactin J | minimal | induced accumulation of cytoplasmic HIF-1α in a dose-dependent manner | 1 to 5 | minimal | induction of IL-8 secretion |  | lower iron binding capacity than desferrioxamine | significantly more potent
